From PubChem BioAssay AID1259407 (Chemical Carcinogenesis Research Information System (CCRIS), 2018)
The source made the active and inactive calls. The rule behind the calls is not given here.

System: CCRIS mutagenicity, Ames/micronucleus/aberration tests
Assay: CCRIS mutagenicity studies
[1] = Test System: AMES SALMONELLA TYPHIMURIUM, Strain/Indicator: TA98, Metabolic Activation: NONE, Method: PREINCUBATION
[2] = Test System: AMES SALMONELLA TYPHIMURIUM, Strain/Indicator: TA100, Metabolic Activation: NONE, Method: PREINCUBATION
[3] = Test System: AMES SALMONELLA TYPHIMURIUM, Strain/Indicator: TA1535, Metabolic Activation: NONE, Method: PREINCUBATION
[4] = Test System: AMES SALMONELLA TYPHIMURIUM, Strain/Indicator: TA98, Metabolic Activation: NONE, Method: STANDARD PLATE
[5] = Test System: AMES SALMONELLA TYPHIMURIUM, Strain/Indicator: TA98, Metabolic Activation: RAT, LIVER, S-9, AROCLOR 1254, Method: STANDARD PLATE
[6] = Test System: AMES SALMONELLA TYPHIMURIUM, Strain/Indicator: TA100, Metabolic Activation: NONE, Method: STANDARD PLATE
[7] = Test System: AMES SALMONELLA TYPHIMURIUM, Strain/Indicator: TA100, Metabolic Activation: RAT, LIVER, S-9, AROCLOR 1254, Method: STANDARD PLATE
[8] = Test System: AMES SALMONELLA TYPHIMURIUM, Strain/Indicator: TA1535, Metabolic Activation: NONE, Method: STANDARD PLATE

With `Nc1cccc(S(=O)(=O)O)c1` the mutagenic call (Test System: AMES SALMONELLA TYPHIMURIUM, Strain/Indicator: TA97, Metabolic Activation: HAMSTER, LIVER, S-9, AROCLOR 1254 (10 OR 30%), Method: PREINCUBATION) was “inactive; negative”, the mutagenic call (Test System: AMES SALMONELLA TYPHIMURIUM, Strain/Indicator: TA97, Metabolic Activation: NONE, Method: PREINCUBATION) was “inactive; negative” and the mutagenic call (Test System: AMES SALMONELLA TYPHIMURIUM, Strain/Indicator: TA97, Metabolic Activation: RAT, LIVER, S-9, AROCLOR 1254 (10 OR 30%), Method: PREINCUBATION) was “inactive; negative”. The mutagenic call (Test System: AMES SALMONELLA TYPHIMURIUM, Strain/Indicator: TA98, Metabolic Activation: HAMSTER, LIVER, S-9, AROCLOR 1254 (10 OR 30%), Method: PREINCUBATION) was “inactive; negative”, the mutagenic call [1] was “inactive; negative” and the mutagenic call (Test System: AMES SALMONELLA TYPHIMURIUM, Strain/Indicator: TA98, Metabolic Activation: RAT, LIVER, S-9, AROCLOR 1254 (10 OR 30%), Method: PREINCUBATION) was “inactive; negative”. For the same compound, the mutagenic call (Test System: AMES SALMONELLA TYPHIMURIUM, Strain/Indicator: TA98, Metabolic Activation: S-9, Method: PREINCUBATION) was “inactive; negative”, the mutagenic call (Test System: AMES SALMONELLA TYPHIMURIUM, Strain/Indicator: TA100, Metabolic Activation: HAMSTER, LIVER, S-9, AROCLOR 1254 (10 OR 30%), Method: PREINCUBATION) was “inactive; negative” and the mutagenic call [2] was “inactive; negative”. For the same compound, the mutagenic call (Test System: AMES SALMONELLA TYPHIMURIUM, Strain/Indicator: TA100, Metabolic Activation: RAT, LIVER, S-9, AROCLOR 1254 (10 OR 30%), Method: PREINCUBATION) was “inactive; negative”, the mutagenic call (Test System: AMES SALMONELLA TYPHIMURIUM, Strain/Indicator: TA100, Metabolic Activation: S-9, Method: PREINCUBATION) was “inactive; negative” and the mutagenic call (Test System: AMES SALMONELLA TYPHIMURIUM, Strain/Indicator: TA1535, Metabolic Activation: HAMSTER, LIVER, S-9, AROCLOR 1254 (10 OR 30%), Method: PREINCUBATION) was “inactive; negative”. The mutagenic call [3] was “inactive; negative”, the mutagenic call (Test System: AMES SALMONELLA TYPHIMURIUM, Strain/Indicator: TA1535, Metabolic Activation: RAT, LIVER, S-9, AROCLOR 1254 (10 OR 30%), Method: PREINCUBATION) was “inactive; negative” and the mutagenic call (Test System: UDS RODENT HEPATOCYTES, Strain/Indicator: THY INCORP (NON-S-PHASE), Metabolic Activation: NONE, Method: AUTORADIOGRAPHY) was “inactive; negative”.

For `O=c1c(Cl)c(Cl)cnn1S(=O)(=O)c1ccccc1`, the mutagenic call [4] was “inactive; negative”, the mutagenic call [5] was “inactive; negative” and the mutagenic call [6] was “inactive; negative”. For the same compound, the mutagenic call [7] was “inactive; negative”, the mutagenic call [8] was “inactive; negative” and the mutagenic call (Test System: AMES SALMONELLA TYPHIMURIUM, Strain/Indicator: TA1535, Metabolic Activation: RAT, LIVER, S-9, AROCLOR 1254, Method: STANDARD PLATE) was “inactive; negative”. The mutagenic call (Test System: AMES SALMONELLA TYPHIMURIUM, Strain/Indicator: TA1537, Metabolic Activation: NONE, Method: STANDARD PLATE) was “inactive; negative” and the mutagenic call (Test System: AMES SALMONELLA TYPHIMURIUM, Strain/Indicator: TA1537, Metabolic Activation: RAT, LIVER, S-9, AROCLOR 1254, Method: STANDARD PLATE) was “inactive; negative”.

In the case of `O=[N+]([O-])c1cc2c(ccc3ccccc32)c2c1C=C[C@H](O)[C@H]2O`, the mutagenic call [1] is reported as “active; positive”, the mutagenic call (Test System: AMES SALMONELLA TYPHIMURIUM, Strain/Indicator: TA98, Metabolic Activation: RAT, LIVER, S-9, AROCLOR 1254, Method: PREINCUBATION) is reported as “inactive; negative” and the mutagenic call [2] is reported as “active; positive”. The mutagenic call (Test System: AMES SALMONELLA TYPHIMURIUM, Strain/Indicator: TA100, Metabolic Activation: RAT, LIVER, S-9, AROCLOR 1254, Method: PREINCUBATION) was “active; positive”.

For `CN(N=O)C(=O)Oc1cccc2c1OC(C)(C)C2`, the mutagenic call (End Point: IN VIVO MICRONUCLEUS, Test System: BONE MARROW POLYCHROMATIC ERYTHROCYTES, Species: MOUSE, Strain/Sex: KM/MALE, FEMALE, Route: IP INJECTION) was “active; positive”.

For `COc1ccc(CCC2CO2)cc1` (centres undefined), the mutagenic call [2] was “active; positive”, the mutagenic call [6] was “active; positive” and the mutagenic call [3] was “active; positive”. The mutagenic call [8] was “active; positive”.

With `O=[N+]([O-])c1ccc2ccc3c([N+](=O)[O-])cccc3c2c1` the mutagenic call (Test System: AMES SALMONELLA TYPHIMURIUM, Strain/Indicator: TA98(1,8-DNP6), Metabolic Activation: NONE, Method: STANDARD PLATE) was “active; positive”, the mutagenic call (Test System: AMES SALMONELLA TYPHIMURIUM, Strain/Indicator: TA98(NR), Metabolic Activation: NONE, Method: STANDARD PLATE) was “active; positive” and the mutagenic call [4] was “active; positive”. The mutagenic call [6] was “active; positive”, the mutagenic call (Test System: AMES SALMONELLA TYPHIMURIUM, Strain/Indicator: YG1021, Metabolic Activation: NONE, Method: STANDARD PLATE) was “active; positive” and the mutagenic call (Test System: AMES SALMONELLA TYPHIMURIUM, Strain/Indicator: YG1024, Metabolic Activation: NONE, Method: STANDARD PLATE) was “active; positive”. For the same compound, the mutagenic call (Test System: AMES SALMONELLA TYPHIMURIUM, Strain/Indicator: YG1026, Metabolic Activation: NONE, Method: STANDARD PLATE) was “active; positive” and the mutagenic call (Test System: AMES SALMONELLA TYPHIMURIUM, Strain/Indicator: YG1029, Metabolic Activation: NONE, Method: STANDARD PLATE) was “active; positive”.

In the case of `c1cc2ccc3ccnc4ccc(c1)c2c34`, the mutagenic call [4] is reported as “active; positive”, the mutagenic call [5] is reported as “active; positive” and the mutagenic call [6] is reported as “inactive; negative”. The mutagenic call [7] was “active; positive”.
